Experiment [1] concerns the target T1, human glucocorticoid receptor-α [GRX] isoform (Homo sapiens, UniProt P04150).
T1 construct: host or cells: insect SF21 cells (baculovirus)
T1 sequence (P04150 1-777): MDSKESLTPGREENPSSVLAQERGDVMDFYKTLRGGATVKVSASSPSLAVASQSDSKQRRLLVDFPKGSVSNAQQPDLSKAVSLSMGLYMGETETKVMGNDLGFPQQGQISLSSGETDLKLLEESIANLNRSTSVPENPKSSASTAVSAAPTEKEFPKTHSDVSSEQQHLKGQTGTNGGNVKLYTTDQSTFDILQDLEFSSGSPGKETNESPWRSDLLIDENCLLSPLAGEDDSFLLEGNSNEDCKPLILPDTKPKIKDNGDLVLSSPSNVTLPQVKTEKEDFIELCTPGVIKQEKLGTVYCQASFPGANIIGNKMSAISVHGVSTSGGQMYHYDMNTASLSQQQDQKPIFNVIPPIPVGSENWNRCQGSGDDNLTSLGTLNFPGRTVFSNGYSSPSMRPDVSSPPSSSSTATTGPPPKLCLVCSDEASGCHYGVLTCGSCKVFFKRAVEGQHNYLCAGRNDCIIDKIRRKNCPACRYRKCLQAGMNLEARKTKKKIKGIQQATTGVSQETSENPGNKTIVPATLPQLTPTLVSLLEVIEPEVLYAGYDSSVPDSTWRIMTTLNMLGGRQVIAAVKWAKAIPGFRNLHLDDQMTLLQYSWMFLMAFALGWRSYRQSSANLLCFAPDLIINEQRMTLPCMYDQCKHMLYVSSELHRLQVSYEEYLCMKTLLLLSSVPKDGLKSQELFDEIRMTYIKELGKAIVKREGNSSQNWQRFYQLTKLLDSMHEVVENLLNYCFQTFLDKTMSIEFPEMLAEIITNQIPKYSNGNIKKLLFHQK
In words: Radioligand binding with human glucocorticoid receptor cytosol ([3H]-dexamethasone competition). The note with it: GRX cytosol expressed in insect SF21 cells, [3H]-Dex ~0.9 nM, 4° C. overnight; Ki by Cheng-Prusoff, KL ~[…]; read-out: Ki (nM) GR.

In experiment [2] the target is T2, human progesterone receptor-A [PRA] isoform (Homo sapiens, UniProt P06401).
T2 construct: host or cells: insect SF21 cells (baculovirus)
T2 sequence (P06401 1-769 isoform P06401-2): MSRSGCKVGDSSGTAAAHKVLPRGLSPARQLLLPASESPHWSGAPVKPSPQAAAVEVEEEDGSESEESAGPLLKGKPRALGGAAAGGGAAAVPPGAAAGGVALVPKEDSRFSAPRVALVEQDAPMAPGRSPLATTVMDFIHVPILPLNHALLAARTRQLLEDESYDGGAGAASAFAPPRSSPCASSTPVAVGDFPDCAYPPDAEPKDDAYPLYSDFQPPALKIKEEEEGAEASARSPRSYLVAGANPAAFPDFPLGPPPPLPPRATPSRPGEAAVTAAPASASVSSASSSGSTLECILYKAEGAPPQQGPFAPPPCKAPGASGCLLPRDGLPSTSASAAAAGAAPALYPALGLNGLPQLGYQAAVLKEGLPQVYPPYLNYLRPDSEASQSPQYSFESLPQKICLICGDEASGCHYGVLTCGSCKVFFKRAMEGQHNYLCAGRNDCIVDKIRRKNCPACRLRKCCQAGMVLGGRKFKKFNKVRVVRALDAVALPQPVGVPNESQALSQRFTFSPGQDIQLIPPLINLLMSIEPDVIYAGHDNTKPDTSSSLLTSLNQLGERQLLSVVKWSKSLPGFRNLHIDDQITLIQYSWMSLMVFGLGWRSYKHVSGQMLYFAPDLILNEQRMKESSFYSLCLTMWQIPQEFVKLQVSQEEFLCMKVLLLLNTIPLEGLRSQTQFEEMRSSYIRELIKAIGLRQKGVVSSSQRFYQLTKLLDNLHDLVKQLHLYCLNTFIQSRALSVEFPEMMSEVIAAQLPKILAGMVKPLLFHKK
Nature of the experiment: Radioligand binding with human progesterone receptor cytosol ([3H]-progesterone competition). The note with it: PRA cytosol expressed in insect SF21 cells, [3H]Prog ~0.8 nM, 4° C. overnight; Ki by Cheng-Prusoff, KL ~4.5 nM; read-out: Ki (nM) PR.

Where only a bound is given, the exact number is not on record here.

What is called Ki is the dissociation constant of the complex between target and ligand, obtained from inhibition or displacement.

With `COc1c(O)ccc2c1-c1ccc3c(c1C(Cc1ccc(F)cc1)O2)C(C)=CC(C)(C)N3` (stereo not shown) [Example 445, 2,5-Dihydro-9-hydroxy-10-methoxy-2,2,4-trimethyl-5-(4-(fluorophenyl)methyl)-1H-[1]benzopyrano[3,4-f]quinoline], the inhibitory constant (Ki) in experiment [1] amounted to 4 nM; in experiment [2] it was 3470 nM.
On the same counts, the results for `COc1cccc2c1-c1ccc3c(c1C(c1cccc(Cl)c1)O2)C(C)=CC(C)(C)N3` (stereo not shown) [Example 23, 5-(3-Chlorophenyl)-2,5-dihydro-10-methoxy-2,2,4-trimethyl-1H-[1]benzopyrano[3,4-f]quinoline] are 8.2 nM and 6150 nM.
On the same counts, the results for `CC1=CC(C)(C)Nc2ccc3c(c21)C(c1ccccc1)Oc1cccc(C)c1-3` (stereo not shown) [Example 71, 2,5-Dihydro-2,2,4,10-tetrametnyl-5-phenyl-1H-[1]benzopyrano[3,4-f]quinoline] are 7.7 nM and 484 nM.
On the same counts, the results for `C=CCC1Oc2ccc(OCC#N)c(OC)c2-c2ccc3c(c21)C(C)=CC(C)(C)N3` (racemic) [Example 377, (+/−)2,5-Dihydro-9-cyanomethoxy-10-methoxy-2,2,4-trimethyl-5-allyl-1H-[1]benzopyrano[3,4-f]quinoline] are 51 nM and 3080 nM.
With `C#CCC1Oc2ccc(O)c(OC)c2-c2ccc3c(c21)C(C)=CC(C)(C)N3` (stereo not shown) [Example 266, 2,5-Dihydro-9-hydroxy-10-methoxy-5-(3-propynyl)-2,2,4-trimethyl-1H-[1]benzopyrano[3,4-f]quinoline], the Ki is 0.71 nM in experiment [1] and 102 nM in experiment [2].
For `COc1c(O)ccc2c1-c1ccc3c(c1C(c1ccc(F)cc1)O2)C(C)=CC(C)(C)N3` (stereo not shown) [Example 255, 2,5-Dihydro-9-hydroxy-10-methoxy-2,2,4-trimethyl-5-(4-fluorophenyl)-1H-[1]benzopyrano[3,4-f]quinoline], the Ki in experiment [1] turned out to be 1.5 nM; in experiment [2] it was 1430 nM.
The matching figures for `CNC(=O)OC/C=C/CC1Oc2cccc(OC)c2-c2ccc3c(c21)C(C)=CC(C)(C)N3` (stereo not shown) [Example 197, (E) 2,5-Dihydro-10-methoxy-5-(4-(N-methylaminocarbonyloxy)-2-buten-1-yl)-2,2,4-trimethyl-1H-[1]benzopyrano[3,4-f]quinoline]: 28 nM and at least 10000 nM.
On the same counts, the results for `CC1=C[C@@H]([C@H]2Oc3ccc(O)c(Cl)c3-c3ccc4c(c32)C(C)=CC(C)(C)N4)CCC1` [Example 419, (+)(5R,3′S)2,5-Dihydro-9-hydroxy-10-chloro-2,2,4-trimethyl-5-(1-methylcyclohexen-3-yl)-1H-[1]benzopyrano[3,4-f]quinoline] are 56.9 nM and 286 nM.
The matching figures for `COc1c(O)ccc2c1-c1ccc3c(c1/C(=C/c1ccc(F)cc1)O2)C(C)=CC(C)(C)N3` [Example 372, (Z)9-Hydroxy-10-methoxy-5-((4-fluorophenyl)methylene)-2,2,4-trimethyl-1H-2,5-dihydro-[1]benzopyrano[3,4-f]quinoline]: 1.8 nM and 164 nM.
Consider `COc1cccc2c1-c1ccc3c(c1[C@@H]([C@@H]1C=C(C)CCC1)O2)C(C)=CC(C)(C)N3` [Example 158], for which the Ki in experiment [1] is 48 nM; in experiment [2], at least 10000 nM.
On the same counts, the results for `COc1c(O)ccc2c1-c1ccc3c(c1C(c1nccs1)O2)C(C)=CC(C)(C)N3` (stereo not shown) [Example 408, 2,5-Dihydro-9-hydroxy-10-methoxy-2,2,4-trimethyl-5-(1-thiazol-2-yl)-1H-[1]benzopyrano[3,4-f]quinoline] are 112 nM and 14100 nM.
For the molecule `COc1c(O)ccc2c1-c1ccc3c(c1C(C(C)C)O2)C(C)=CC(C)(C)N3` (stereo not shown) [Example 267, 2,5-Dihydro-9-hydroxy-10-methoxy-2,2,4-trimethyl-5-(2-propyl)-1H-[1]benzopyrano[3,4-f]quinoline], the values for the Ki in experiment [1] and in experiment [2] were 0.79 nM and 938 nM, respectively.
On the same counts, the results for `COc1cccc2c1-c1ccc3c(c1C(CC(C)C)O2)C(C)=CC(C)(C)N3` (stereo not shown) [Example 59, 2,5-Dihydro-10-methoxy-2,2,4-trimethyl-5-(2-methlpropyl)-1H-[1]benzopyrano[3,4-f]quinoline] are 9.5 nM and 16600 nM.
As for `COc1cccc2c1-c1ccc3c(c1C(c1cccc(OCc4ccccc4)c1)O2)C(C)=CC(C)(C)N3` (stereo not shown) [Example 87, 2,5-Dihydro-10-methoxy-2,2,4-trimethyl-5-[3-(phenylmethoxy)phenyl]-1H[1]benzopyrano[3,4-f]quinoline], the figures for the Ki in experiment [1] and in experiment [2] were 4.7 nM and at least 10000 nM, respectively.
For the molecule `C=CCC1Oc2cccc(COC)c2-c2ccc3c(c21)C(C)=CC(C)(C)N3` (stereo not shown) [Example 332, 2,5-Dihydro-10-methoxymethyl-5-(3-propenyl)-2,2,4-trimethyl-1H-[1]benzopyrano[3,4-f]quinoline], the Ki in experiment [1] was 18 nM; in experiment [2] it was at least 10000 nM.
With `C=CCC1Oc2ccc(OC(=O)CCC(=O)N3CCCCC3)c(OC)c2-c2ccc3c(c21)C(C)=CC(C)(C)N3` (stereo not shown) [Example 379, 2,5-Dihydro-9-(4-N-piperidino-4-oxo-butanoyloxy)-10-methoxy-2,2,4-trimethyl-5-(2-propenyl)-1H-[1]benzopyrano[3,4-f]quinoline], the Ki was found to be 1.4 nM in experiment [1] and 175 nM in experiment [2].
`C#Cc1cccc2c1-c1ccc3c(c1C(CC=C)O2)C(C)=CC(C)(C)N3` (stereo not shown) [Example 6, 10-Ethynyl-2,5-dihydro-2,2,4-trimethyl-5-(2-propenyl)-1H-[1]benzopyrano[3,4-f]quinoline]: the inhibition constant (Ki) in experiment [1] was 3.8 nM; in experiment [2] it was 321 nM.
On the same counts, the results for `COc1cccc2c1-c1ccc3c(c1C(c1ccc(F)c(C)c1)O2)C(C)=CC(C)(C)N3` (stereo not shown) [Example 55] are 8.2 nM and at least 10000 nM.
On the same counts, the results for `COc1cccc2c1-c1ccc3c(c1C(=Cc1c(Cl)cccc1Cl)O2)C(C)=CC(C)(C)N3` [Example 125] are 36.6 nM and at least 10000 nM.
The matching figures for `CNCC1=CC(C2Oc3cccc(OC)c3-c3ccc4c(c32)C(C)=CC(C)(C)N4)CCC1` [Example 170, rel (5R, 3′R) 2,5-Dihydro-10-methoxy-5-(1-(N-methylamino)methyl-3-cyclohexenyl)2,2,4-trimethyl-1H-[1]benzoppyrano[3,4-f]quinoline]: 82 nM and at least 10000 nM.
For the molecule `C=CCC1Oc2ccc(Cl)c(C=C)c2-c2ccc3c(c21)C(C)=CC(C)(C)N3` (stereo not shown) [Example 228, 5-(3-Propenyl)-9-chloro-10-ethenyl-2,2,4-trimethyl-2,5-dihydro-1H-[1]benzopyrano[3,4-f]quinoline], the Ki in experiment [1] turned out to be 5.4 nM; in experiment [2], 29.5 nM.
On the same counts, the results for `COCOC/C=C/C1Oc2cccc(OC)c2-c2ccc3c(c21)C(C)=CC(C)(C)N3` (stereo not shown) [Example 183, (E) 2,5-Dihydro-10-methoxy-5-(3-methoxymethoxy-1-propenyl)-2,2,4-trimethyl-1H-[1]benzopyrano[3,4-f]quinoline] are 38 nM and at least 10000 nM.
With `C=CCC1Oc2cccc(CN)c2-c2ccc3c(c21)C(C)=CC(C)(C)N3` (stereo not shown) [Example 331, 2,5-Dihydro-10-aminomethyl-5-(3-propenyl)-2,2,4-trimethyl-1H-[1]benzopyrano[3,4-f]quinolione], the Ki in experiment [1] is 142 nM; in experiment [2] it was at least 10000 nM.

The record behind these values is patent US6506766B1 (Abbott Laboratories, priority 1998, dated 2003).
